{"source": "patent US20060069132A1", "about": "“Azolecarboxamide herbicides” (priority 2004, published 2006)", "key": {"barnyardgrass [1]": {"tested_on": "barnyardgrass", "assay": "Test B pre-/postemergence herbicide test", "type": "in vivo, Echinochloa crus-galli", "conditions": "for Barnyardgrass plant response rating: postemergence, scale 0 (no effect) to 100 (complete control)", "summary_of_the_method": "(§1)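 Greenhouse pot assay with simultaneous preemergence (treated seed) and postemergence (2–18 cm seedlings) applications of surfactant-containing, non-phytotoxic solvent formulations. Response scored visually 13–15 days later on a 0–100 scale, 100 meaning complete control.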"}, "Surinam grass": {"tested_on": "Surinam grass", "assay": "Test B pre-/postemergence herbicide test", "type": "in vivo, Urochloa decumbens", "conditions": "for Surinam Grass plant response rating: postemergence, scale 0 (no effect) to 100 (complete control)", "summary_of_the_method": "as §1"}, "cocklebur": {"tested_on": "cocklebur", "assay": "Test B pre-/postemergence herbicide test", "type": "in vivo, Xanthium strumarium", "conditions": "for Cocklebur plant response rating: postemergence, scale 0 (no effect) to 100 (complete control)", "summary_of_the_method": "as §1"}, "corn": {"tested_on": "corn", "assay": "Test B pre-/postemergence herbicide test", "type": "in vivo, Zea mays", "conditions": "for Corn plant response rating: postemergence, scale 0 (no effect) to 100 (complete control)", "summary_of_the_method": "as §1"}, "large crabgrass": {"tested_on": "large crabgrass", "assay": "Test B pre-/postemergence herbicide test", "type": "in vivo, Digitaria sanguinalis", "conditions": "for Crabgrass, Large plant response rating: postemergence, scale 0 (no effect) to 100 (complete control)", "summary_of_the_method": "as §1"}, "giant foxtail": {"tested_on": "giant foxtail", "assay": "Test B pre-/postemergence herbicide test", "type": "in vivo, Setaria faberi", "conditions": "for Foxtail, Giant plant response rating: postemergence, scale 0 (no effect) to 100 (complete control)", "summary_of_the_method": "as §1"}, "lambsquarters": {"tested_on": "lambsquarters", "assay": "Test B pre-/postemergence herbicide test", "type": "in vivo, Chenopodium album", "conditions": "for Lambsquarters plant response rating: postemergence, scale 0 (no effect) to 100 (complete control)", "summary_of_the_method": "as §1"}, "morningglory": {"tested_on": "morningglory", "assay": "Test B pre-/postemergence herbicide test", "type": "in vivo, Ipomoea coccinea", "conditions": "for Morningglory plant response rating: postemergence, scale 0 (no effect) to 100 (complete control)", "summary_of_the_method": "as §1"}, "pigweed": {"tested_on": "pigweed", "assay": "Test B pre-/postemergence herbicide test", "type": "in vivo, Amaranthus retroflexus", "conditions": "for Pigweed plant response rating: postemergence, scale 0 (no effect) to 100 (complete control)", "summary_of_the_method": "as §1"}, "rice [2]": {"tested_on": "rice", "assay": "Test B pre-/postemergence herbicide test", "type": "in vivo, Oryza sativa", "conditions": "0 = no effect, 100 = complete control, preemergence", "source_text": "Seeds selected from barnyardgrass (Echinochloa crus-galli (L.) Beauv.), Surinam grass (Urochloa decumbens (Staph) R. D. Webster, previously named Brachiaria decumbens Stapf), cocklebur (Xanthium strumarium L.), corn (Zea mays L.), large crabgrass (Digitaria sanguinalis (L.) Scop.), giant foxtail (Setaria faberi Herim.), lambsquarters (Chenopodium album L.), morningglory (Ipomoea coccinea L.), pigweed (Amaranthus retroflexus L.), rice (Oryza sativa L.) and velvetleaf (Abutilon theophrasti Medik.) were planted and treated preemergence with test chemicals formulated in a non-phytotoxic solvent mixture which included a surfactant.\nAt the same time, plants selected from these crop and weed species and also blackgrass (Alopecurus myosuroides Huds.), wheat (Triticum aestivum L.) and wild oat (Avena fatua L.) were treated with postemergence applications of test chemicals formulated in the same manner. Plants ranged in height from 2 to 18 cm (1- to 4-leaf stage) for postemergence treatments. Plant species in the flooded paddy test consisted of rice (Oryza sativa L.), small flower umbrella sedge (Cyperus difformis L.), ducksalad (Heteranthera limosa (Sw.) Willd.) and barnyardgrass (Echinochloa crus-galli (L.) Beauv.) grown to the 2-leaf stage for testing. Treated plants and controls were maintained in a greenhouse for 13 to 15 days, after which time all species were compared to controls and visually evaluated. Plant response ratings, summarized in Table B, are based on a scale of 0 to 100 where 0 is no effect and 100 is complete control. A dash (-) response means no test result."}, "velvetleaf": {"tested_on": "velvetleaf", "assay": "Test B pre-/postemergence herbicide test", "type": "in vivo, Abutilon theophrasti", "conditions": "for Velvetleaf plant response rating: postemergence, scale 0 (no effect) to 100 (complete control)", "summary_of_the_method": "as §1"}, "blackgrass": {"tested_on": "blackgrass", "assay": "Test B postemergence herbicide test", "type": "in vivo, Alopecurus myosuroides", "conditions": "postemergence, visual rating, scale 0 (no effect) to 100 (complete control)", "summary_of_the_method": "(§2)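 Greenhouse test; postemergence application to plants at 1–4 leaves (2–18 cm); paddy species at 2 leaves; evaluated visually vs controls at 13–15 days; scale 0–100 (100 = complete control).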"}, "wheat": {"tested_on": "wheat", "assay": "Test B postemergence herbicide test", "type": "in vivo, Triticum aestivum", "design": "key to Wheat plant response rating: 0 = no effect, 100 = complete control", "conditions": "postemergence, visual rating, scale 0 (no effect) to 100 (complete control)", "summary_of_the_method": "(§3)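 Postemergence plants were sprayed with formulated test chemicals at 2 to 18 cm height (1- to 4-leaf stage); paddy species were grown to the 2-leaf stage. After 13 to 15 days in a greenhouse, injury was rated visually against untreated controls on a 0–100 scale (0 = no effect, 100 = complete control).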"}, "wild oat": {"tested_on": "wild oat", "assay": "Test B postemergence herbicide test", "type": "in vivo, Avena fatua", "conditions": "postemergence, visual rating, scale 0 (no effect) to 100 (complete control)", "summary_of_the_method": "as §3"}, "rice [3]": {"tested_on": "rice", "assay": "Test B flooded paddy test", "type": "in vivo, Oryza sativa", "conditions": "1000 g ai/ha, visual rating, scale 0 to 100 (0 no effect, 100 complete control), 13 to 15 days", "summary_of_the_method": "as §2"}, "[4]": {"tested_on": "small flower umbrella sedge", "assay": "Test B flooded paddy test", "type": "in vivo, Cyperus difformis", "conditions": "1000 g ai/ha, visual rating, scale 0 to 100 (0 no effect, 100 complete control), 13 to 15 days", "summary_of_the_method": "as §2"}, "ducksalad": {"tested_on": "ducksalad", "assay": "Test B flooded paddy test", "type": "in vivo, Heteranthera limosa", "conditions": "1000 g ai/ha, visual rating, scale 0 to 100 (0 no effect, 100 complete control), 13 to 15 days", "summary_of_the_method": "as §2"}, "barnyardgrass [5]": {"tested_on": "barnyardgrass", "assay": "Test B flooded paddy test", "type": "in vivo, Echinochloa crus-galli", "conditions": "1000 g ai/ha, visual rating, scale 0 to 100 (0 no effect, 100 complete control), 13 to 15 days", "summary_of_the_method": "as §2"}, "[6]": {"conditions": "125 g ai/ha, 0 = no effect, 100 = complete control, preemergence"}, "[7]": {"conditions": "500 g ai/ha, visual rating, 0 = no effect, 100 = complete control, preemergence"}}, "data": [{"smiles": "CCN(CC)C(=O)c1cccc(NC(=O)c2nn(C(C)(C)C)cc2Cl)c1", "note": "[Compound 218]", "values": [{"measurement": "Barnyardgrass plant response rating (0 to 100 scale)", "setting": "barnyardgrass [1]; [6]", "value": 0}, {"measurement": "Plant response rating, Barnyardgrass", "setting": "barnyardgrass [1]; [7]", "value": 0}, {"measurement": "Barnyardgrass plant response rating", "setting": "barnyardgrass [1]; 125 g ai/ha, visual rating", "value": 0}, {"measurement": "Barnyardgrass plant response rating", "setting": "barnyardgrass [1]; 500 g ai/ha, visual rating", "value": 0}, {"measurement": "Surinam Grass plant response rating (0 to 100 scale)", "setting": "Surinam grass; [6]", "value": 0}, {"measurement": "Plant response rating, Surinam Grass", "setting": "Surinam grass; [7]", "value": 0}, {"measurement": "Surinam Grass plant response rating", "setting": "Surinam grass; 125 g ai/ha, visual rating", "value": 0}, {"measurement": "Surinam Grass plant response rating", "setting": "Surinam grass; 500 g ai/ha, visual rating", "value": 10}, {"measurement": "Cocklebur plant response rating (0 to 100 scale)", "setting": "cocklebur; [6]", "value": 0}, {"measurement": "Plant response rating, Cocklebur", "setting": "cocklebur; [7]", "value": 0}, {"measurement": "Cocklebur plant response rating", "setting": "cocklebur; 125 g ai/ha, visual rating", "value": 0}, {"measurement": "Cocklebur plant response rating", "setting": "cocklebur; 500 g ai/ha, visual rating", "value": 0}, {"measurement": "Corn plant response rating (0 to 100 scale)", "setting": "corn; [6]", "value": 0}, {"measurement": "Plant response rating, Corn", "setting": "corn; [7]", "value": 0}, {"measurement": "Corn plant response rating", "setting": "corn; 125 g ai/ha, visual rating", "value": 0}, {"measurement": "Corn plant response rating", "setting": "corn; 500 g ai/ha, visual rating", "value": 10}, {"measurement": "Crabgrass, Large plant response rating (0 to 100 scale)", "setting": "large crabgrass; [6]", "value": 0}, {"measurement": "Plant response rating, Crabgrass, Large", "setting": "large crabgrass; [7]", "value": 20}, {"measurement": "Crabgrass, Large plant response rating", "setting": "large crabgrass; 125 g ai/ha, visual rating", "value": 0}, {"measurement": "Crabgrass, Large plant response rating", "setting": "large crabgrass; 500 g ai/ha, visual rating", "value": 10}, {"measurement": "Foxtail, Giant plant response rating (0 to 100 scale)", "setting": "giant foxtail; [6]", "value": 0}, {"measurement": "Plant response rating, Foxtail, Giant", "setting": "giant foxtail; [7]", "value": 0}, {"measurement": "Foxtail, Giant plant response rating", "setting": "giant foxtail; 125 g ai/ha, visual rating", "value": 0}, {"measurement": "Foxtail, Giant plant response rating", "setting": "giant foxtail; 500 g ai/ha, visual rating", "value": 0}, {"measurement": "Lambsquarters plant response rating (0 to 100 scale)", "setting": "lambsquarters; [6]", "value": 0}, {"measurement": "Plant response rating, Lambsquarters", "setting": "lambsquarters; [7]", "value": 0}, {"measurement": "Lambsquarters plant response rating", "setting": "lambsquarters; 125 g ai/ha, visual rating", "value": 0}, {"measurement": "Lambsquarters plant response rating", "setting": "lambsquarters; 500 g ai/ha, visual rating", "value": 10}, {"measurement": "Morningglory plant response rating (0 to 100 scale)", "setting": "morningglory; [6]", "value": 0}, {"measurement": "Plant response rating, Morningglory", "setting": "morningglory; [7]", "value": 0}, {"measurement": "Morningglory plant response rating", "setting": "morningglory; 125 g ai/ha, visual rating", "value": 0}, {"measurement": "Morningglory plant response rating", "setting": "morningglory; 500 g ai/ha, visual rating", "value": 10}, {"measurement": "Pigweed plant response rating (0 to 100 scale)", "setting": "pigweed; [6]", "value": 0}, {"measurement": "Plant response rating, Pigweed", "setting": "pigweed; [7]", "value": 0}, {"measurement": "Pigweed plant response rating", "setting": "pigweed; 125 g ai/ha, visual rating", "value": 0}, {"measurement": "Pigweed plant response rating", "setting": "pigweed; 500 g ai/ha, visual rating", "value": 20}, {"measurement": "Rice plant response rating (0 to 100 scale)", "setting": "rice [2]; 125 g ai/ha", "value": 0}, {"measurement": "Plant response rating, Rice", "setting": "rice [2]; 500 g ai/ha, visual rating", "value": 0}, {"measurement": "Velvetleaf plant response rating (0 to 100 scale)", "setting": "velvetleaf; [6]", "value": 0}, {"measurement": "Plant response rating, Velvetleaf", "setting": "velvetleaf; [7]", "value": 0}, {"measurement": "Velvetleaf plant response rating", "setting": "velvetleaf; 125 g ai/ha, visual rating", "value": 0}, {"measurement": "Velvetleaf plant response rating", "setting": "velvetleaf; 500 g ai/ha, visual rating", "value": 0}, {"measurement": "Blackgrass plant response rating", "setting": "blackgrass; 125 g ai/ha", "value": 0}, {"measurement": "Blackgrass plant response rating", "setting": "blackgrass; 500 g ai/ha", "value": 0}, {"measurement": "Wheat plant response rating", "setting": "wheat; 125 g ai/ha", "value": 0}, {"measurement": "Wheat plant response rating", "setting": "wheat; 500 g ai/ha", "value": 0}, {"measurement": "Oat, Wild plant response rating", "setting": "wild oat; 125 g ai/ha", "value": 0}, {"measurement": "Oat, Wild plant response rating", "setting": "wild oat; 500 g ai/ha", "value": 0}, {"measurement": "Rice plant response rating", "setting": "rice [3]", "value": 0}, {"measurement": "Sedge, Umbrella plant response rating", "setting": "[4]", "value": 20}, {"measurement": "Ducksalad plant response rating", "setting": "ducksalad", "value": 0}, {"measurement": "Barnyardgrass plant response rating", "setting": "barnyardgrass [5]", "value": 0}]}]}
